Eight compounds from PMC10726441, “Discovery of Tumor-Targeted 6-Methyl Substituted Pemetrexed and Related Antifolates with Selective Loss of RFC Transport” (ACS Medicinal Chemistry Letters, 2023) can be followed below.

One experiment has as its system RT16 (FRα) CHO cells. Nature of the experiment: Cell proliferation assay, RT16 CHO cells expressing human FRα. To be noted: for IC50: Cricetulus griseus, RT16, 96 h, 0-1000 nM, mean (standard error), 3-5 experiments; for RFC/FRα Selectivity ratios: ratio of IC50 PC43-10 (RFC) to IC50 RT16 (FRα). The experiment is classed as cell-based, Chinese hamster. From the text: To assess the impact of 6-methyl substitutions on the bicyclic scaffolds of the pyrrolo[2,3-d]pyrimidine antifolates 1–4 on RFC transport vis-à-vis PCFT, FRα, and FRβ, we used a unique biological readout for transport activity. This involved proliferation assays with isogenic Chinese hamster ovary (CHO) sublines derived from RFC-, FR-, and PCFT-null MTXRIIOua^R2–4 CHO cells[39],[40] engineered to express the human FRα (RT16),[25] FRβ (D4),[25] RFC (PC43–10),[41] or PCFT (R2/PCFT4).[26],[42] As these CHO cell lines are genetically identical except for their folate transporters, differences in inhibition of cell proliferation by specific cytotoxic antifolates directly reflect transporter specificities.[19],[23]−[31],[42] […]
Reagents for biological studies. Leucovorin [(6R,S) 5-formyl tetrahydrofolate] and methotrexate (MTX) was provided by the Drug Development Branch, National Cancer Institute, Bethesda, MD. Other chemicals were obtained from commercial sources in the highest available purities. Pemetrexed (PMX; 1) [N-{4-[2- (2-amino-3,4-dihydro-4-oxo-7H-pyrrolo[2,3-d]pyrimidin-5-yl)ethyl]benzoyl-L-glutamic acid] (Alimta) was purchased from LC Laboratories (Woburn, MA). The syntheses of compounds 2 and 3 were previously described.7, 8 Additional chemicals were purchased from commercial sources in the highest available purities.
Cell Culture. The reduced folate carrier (RFC), proton-coupled folate transporter (SLC46A1; PCFT) and folate receptor (FR) α- and β-null Chinese hamster ovary (CHO) cell line MTXRIIOuaR2-49 was a gift from Dr. Wayne Flintoff (University of Western Ontario, London, ON). Four sublines were derived from the R2 subline by transfection with either RFC, PCFT, FRα, or FRβ, giving rise to PC43-10 (expresses human RFC), 10 R2/PCFT4 (expresses human PCFT),11 RT16 (expresses human FRα), 12 and D4 (expresses FRβ) cells. 12 Isogenic CHO sublines were routinely cultured in α-minimal essential medium (α-MEM) supplemented with 100 units/mL penicillin/100 μg/mL streptomycin, 2 mM L-glutamine and 10% bovine calf serum (Sigma-Aldrich). Transfected sublines of R2 cells were cultured in the presence of 1.5 mg/ml G418. […]
mM L-glutamine. Cell lines were tested for Mycoplasma by PCR using a Mycloplasma testing kit (Venor™ GeM Mycoplasma Detection Kit, Sigma). Frozen stocks were generated from authenticated Mycoplasma-free cultures.
(§1) For cell proliferation assays, CHO, KB, NCI-IGROV1 and IOSE 7576 cells were plated in 96-well dishes at densities ranging from 2500-5000 cells/well in 200 μL media and treated with a range of inhibitors spanning 0-1000 nM. Experiments with RT16, D4, IGROV1, IOSE 7576 and KB cells used folate-free RPMI 1640 (FF RPMI) media with 10% dialyzed fetal bovine serum and 100 units/mL penicillin/100 μg/mL streptomycin, supplemented with 2 nM leucovorin and 2 mM L-glutamine. FR-mediated drug uptake was assessed in parallel incubations including 200 nM folic acid. For R2/PCFT4, PC43-10 and R2 CHO cells, the medium was FF-RPMI supplemented with 10% dialyzed fetal bovine serum, 100 units/mL penicillin/100 μg/mL streptomycin, 25 nM leucovorin and 2 mM L-glutamine.
(§2) Cells were treated over a 96 h period at 37° C with 5% CO2 and relative cell numbers quantified using the CellTiter-blue cell viability assay (Promega, Madison, WI) and a fluorescence plate reader. Raw data were exported to Excel for analysis and the results were plotted using Graphpad Prism 6.0. Determinations of IC50s were made […]
assays have been previously described.7, 8, 11, 12, 15-20
Using KB cells, additional proliferation assays were performed with metabolite protection in folate- and glycine-free RPMI1640 with 10% dialyzed fetal bovine serum, 2 mM L-glutamine and antibiotics with 2 nM leucovorin to identify the targeted pathway and enzyme(s). 7, 8, 11, 12, 15-20 Inhibitory effects of the novel analogs on de novo thymidylate biosynthesis and de novo purine nucleotide biosynthesis were tested by incubating drugs with thymidine (10 μM) and adenosine (60 μM), respectively. […]

In experiment [1] the test system is KB tumor cells; thymidylate and de novo purine nucleotide biosynthesis. Nature of the experiment: Metabolite protection experiments in KB cells (thymidine, adenosine, glycine, AICA). Particulars: for targeted pathway from metabolite protection (in words): thymidine 10 μM, adenosine 60 μM, glycine 130 μM, AICA 320 μM. The experiment is classed as cell-based, human. The procedure:
To identify the targeted pathways/enzymes of these pyrrolo[2,3-d]pyrimidine compounds (1, 2, 4–8), in vitro growth inhibition assays were performed with KB tumor cells in glycine-, adenosine-, and thymidine-free media without additions or in the presence of thymidine (10 μM), adenosine (60 μM), or glycine (130 μM) (both singly and in various combinations; Figure 4).[18],[23]−[25],[28]−[31],[42],[44],[45] For de novo purine biosynthesis inhibitors, protection was also tested with AICA (320 μM), which is metabolized to AICA ribonucleotide (substrate for the AICARFTase reaction, thus circumventing GARFTase).
Figure 4 Metabolite protection experiments. […] Cell densities were measured with a fluorescence assay[25] and a fluorescence plate reader. Results were normalized to cell densities in the absence of drug. Results shown are mean values plus/minus standard errors from triplicate experiments. Experimental details are described in the Supporting Information, and the methods have been previously published.[18],[23]−[25],[28]−[31],[42],[44]
(Vancouver, B.C). IGROV1, KB and IOSE 7576 cells were cultured in complete FF-RPMI with 10% fetal bovine serum and 100 units/mL penicillin/100 μg/mL streptomycin, and 2 mM L-glutamine. Cell lines were tested for Mycoplasma by PCR using a Mycloplasma testing kit (Venor™ GeM Mycoplasma Detection Kit, Sigma). Frozen stocks were generated from authenticated Mycoplasma-free cultures.
as §1, §2
assays have been previously described.7, 8, 11, 12, 15-20 […]

SMILES strings stand for the structures. “Also recorded” adds a separate entry of the source.

Broadly, the IC50 is the point on the concentration scale where inhibition reaches its midpoint. Read a low IC50 as greater potency.

Regarding `Nc1nc2[nH]cc(CCc3ccc(C(=O)N[C@@H](CCC(=O)O)C(=O)O)cc3)c2c(=O)[nH]1` [Compound 1, reference compound], half-maximal inhibition in the experiment with RT16 (FRα) CHO cells (IC50) was put at 14 nM. Further, the “targeted pathway from metabolite protection (in words)” value (from here on “targeted pathway”) in experiment [1] is “inhibited both thymidylate and purine nucleotide biosynthesis”.
In the case of `Nc1nc2[nH]cc(CCCc3ccc(C(=O)N[C@@H](CCC(=O)O)C(=O)O)cc3)c2c(=O)[nH]1` [Compound 2], the IC50 with RT16 (FRα) CHO cells amounted to 47.9 nM. Besides, the “protection by glycine / mitochondrial C1 metabolism (in words)” value in experiment [1] (glycine 130 μM added to adenosine and thymidine) was “addition of glycine provided greater protection than did adenosine and thymidine alone; also recorded: inhibition of mitochondrial C1 metabolism was also suggested”. The “targeted pathway” value in experiment [1] was “inhibited both thymidylate and purine nucleotide biosynthesis”.
Turning to `Nc1nc2[nH]cc(CCc3ccc(C(=O)N[C@@H](CCC(=O)O)C(=O)O)s3)c2c(=O)[nH]1` [Compound 3], in the experiment on RT16 (FRα) CHO cells, the IC50 was 550 nM and the “RFC/FRα Selectivity ratios” value came out at 0.11.
Take `Nc1nc2[nH]cc(CCc3ccc(C(=O)N[C@@H](CCC(=O)O)C(=O)O)c(F)c3)c2c(=O)[nH]1` [Compound 4]: in the experiment on RT16 (FRα) CHO cells, the midpoint of inhibition, the IC50, lay at 6.76 nM and the “RFC/FRα Selectivity ratios” value is 25. The “targeted pathway” value in experiment [1] is “inhibited both thymidylate and purine nucleotide biosynthesis”.
Turning to `Cc1[nH]c2nc(N)[nH]c(=O)c2c1CCc1ccc(C(=O)N[C@@H](CCC(=O)O)C(=O)O)cc1` [Compound 5], in the experiment on RT16 (FRα) CHO cells, the IC50 is 94.8 nM and the “RFC/FRα Selectivity ratios” value was above 10.5.
In the same order, the values of `Cc1[nH]c2nc(N)[nH]c(=O)c2c1CCCc1ccc(C(=O)N[C@@H](CCC(=O)O)C(=O)O)cc1` [Compound 6] are 63.8 nM and above 15.7.
Take `Cc1[nH]c2nc(N)[nH]c(=O)c2c1CCc1ccc(C(=O)N[C@@H](CCC(=O)O)C(=O)O)s1` [Compound 7]: in the experiment with RT16 (FRα) CHO cells, 2.53 nM corresponded to half-maximal inhibition (IC50) and the “RFC/FRα Selectivity ratios” value is above 395.
In the case of `Cc1[nH]c2nc(N)[nH]c(=O)c2c1CCc1ccc(C(=O)N[C@@H](CCC(=O)O)C(=O)O)c(F)c1` [Compound 8], in the experiment on RT16 (FRα) CHO cells, the IC50 turned out to be 100 nM and the “RFC/FRα Selectivity ratios” value is listed as above 10.
